This note sets out measurements from PMC9404792, “Synthesis and Antioxidant Properties of HeteroBisNitrones Derived from Benzene Dicarbaldehydes” (Antioxidants, 2022).

The structures appear in SMILES notation.

The experiment deals with T1, soybean lipoxygenase (LOX) (Glycine max, UniProt P08170).
T1 construct: gene LOX1.1
T1 sequence (P08170 1-839): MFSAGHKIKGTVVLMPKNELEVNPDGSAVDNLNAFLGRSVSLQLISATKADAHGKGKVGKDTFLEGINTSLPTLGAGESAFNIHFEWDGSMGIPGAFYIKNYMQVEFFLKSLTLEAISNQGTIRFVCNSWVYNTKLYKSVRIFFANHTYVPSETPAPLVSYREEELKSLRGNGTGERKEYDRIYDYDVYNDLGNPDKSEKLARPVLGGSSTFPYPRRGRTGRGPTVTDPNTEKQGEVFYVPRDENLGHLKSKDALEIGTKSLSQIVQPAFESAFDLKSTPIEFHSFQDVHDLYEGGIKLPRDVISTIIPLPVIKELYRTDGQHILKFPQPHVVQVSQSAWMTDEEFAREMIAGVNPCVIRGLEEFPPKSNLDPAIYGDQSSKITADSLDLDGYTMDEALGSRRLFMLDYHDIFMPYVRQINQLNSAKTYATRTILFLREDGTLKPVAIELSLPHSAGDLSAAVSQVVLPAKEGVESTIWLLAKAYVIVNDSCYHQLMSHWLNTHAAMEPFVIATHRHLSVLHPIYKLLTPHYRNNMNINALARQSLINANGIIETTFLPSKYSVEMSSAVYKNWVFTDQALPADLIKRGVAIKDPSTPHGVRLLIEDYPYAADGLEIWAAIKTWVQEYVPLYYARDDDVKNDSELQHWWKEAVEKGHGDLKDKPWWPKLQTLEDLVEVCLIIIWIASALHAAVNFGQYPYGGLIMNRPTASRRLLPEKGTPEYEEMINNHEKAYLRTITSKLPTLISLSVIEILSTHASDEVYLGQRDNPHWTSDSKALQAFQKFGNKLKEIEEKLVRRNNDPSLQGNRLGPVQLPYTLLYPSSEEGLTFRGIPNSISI
Briefly: UV assay at […] nm of sodium linoleate conversion to 13-hydroperoxylinoleic acid. Type of experiment: biochemical. The note with it: read-out: LOX Inhibition (% or IC50 [μM]).

Take `CC(C)(C)/[N+]([O-])=C/c1ccccc1/C=[N+](\[O-])Cc1ccccc1` [hBN9, (Z)-N-Benzyl-1-(2-((Z)-(tert-butyloxidoazaneylidene)methyl)phenyl)methanimine oxide]: the IC50 was found to be 57.5 µM.
To `C/[N+]([O-])=C/c1ccccc1/C=[N+](\[O-])Cc1ccccc1` [hBN8, (Z)-N-Benzyl-1-(2-((Z)-(methyloxidoazaneylidene)methyl)phenyl)methanimine oxide] belongs 82.5 µM.
